Laboratory results as given in US20220250063A1, “ASSAY SYSTEM, METHODS, AND MULTI-WELL PLATE FOR GAS STIMULATION OF BIOLOGICAL CELLS, PROTEINS OR MATERIALS” (Koniku Inc., priority 2021, published 2022).

System: odorant receptor of the modified cells
Assay: Gas stimulation of modified cells expressing different odorant receptors in a 96 well microplate, fluorescence recorded by camera
Format: cell-based
Details: sample as gas in the gas channel of 96 well microplate 80; for fluorescent response of the responding wells: different ORs in different wells, responding wells (81A: one well; 81C: four wells; 81E: two wells); for fluorescent response of all of the other wells: remaining dark wells (81B: 95 wells; 81D: 92 wells; 81F: 94 wells)
Text: In a representative example of operation, an empty microplate is placed in the hatch 120 by a technician or automatically using a microplate loader/unloader. The microplate is moved to the disk support, with the wells aligned with the pipettes. The pipetting head holding the pipettes is lowered to position the tips of the pipettes in or near the wells. The pipettes deposit liquid containing cells into the wells. Inlet and outlet gas nozzles or fittings engage the gas channel inlet and outlet in the microplate. In some embodiments, there are more than one inlets and outlets that correspond to the number of channels and number of samples injected. Gas containing a VOC or other candidate molecule or compound sample is injected through the gas channel of the microplate. This may be done manually or via automation.
If the VOC or other candidate molecule or compound in the sample binds and activates the odorant receptor expressed by the cells, a signal is emitted (e.g., emission of fluorescent or luminescent light). The signal is detected by the camera 128 via the optical unit 126. The computer 138 analyzes and records the location (i.e., the well number or position), the intensity, time duration, color, and/or other parameters of the fluorescent light, along with data on the VOC or other candidate molecule or compound momentarily passing through the microplate. The computer 138 may calculate the mean of the pixels for each well in each of the images.
FIG. 14 is an image as recorded by the camera 128 with a sample of benzaldehyde provided into the gas channel of a 96 well microplate 80.
The microplate 80 shown in FIGS. 14-16 has different cells in different wells. As shown, the odorant receptors of different cells bind to different compounds. In each well of the 96 well microplate 80, the cells expressed the same OR. Different ORs were provided into different wells. […] This allows determination of which ORs may best detect menthol. It may also allow for genetically fine tuning the receptors.

Compound	fluorescent response of the responding wells	fluorescent response of all of the other wells
CCCCCc1ccco1 [2-pentylfuran]	strong fluorescent responses	no fluorescent response
CC1CCC(C(C)C)C(O)C1 (stereo not drawn) [menthol]	strong fluorescent responses	no fluorescent response
O=Cc1ccccc1 [benzaldehyde]	strongly fluorescing	not at all
